Measurements: patent US20230303549A1, “SUBSTITUTED HETEROARYLOXYPYRIDINES, THE SALTS THEREOF AND THEIR USE AS HERBICIDAL AGENTS” (Bayer Aktiengesellschaft, priority 2020, published 2023)

How the values were obtained:
Type in all cases: in vivo
Lolium rigidum (LOLRI) = assay: Post-emergence herbicidal efficacy at 320 g/ha, greenhouse pot test; conditions: visual rating vs untreated control after about 3 weeks
Procedure, shortened: (§1)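 Applied onto green plant parts as suspension or emulsion at a 600 L/ha water rate, containing 0.5% additive. Potted weeds in sandy loam were treated at one leaf and assessed visually versus controls about three weeks later.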

Bassia scoparia (KCHSC) [1] = assay: as above; conditions: visual rating vs untreated control after about 3 weeks
Procedure, shortened: as §1

Setaria viridis (SETVI) [2] = assay: as above; conditions: visual rating vs untreated control after about 3 weeks
Procedure, shortened: as §1

Stellaria media (STEME) [3] = assay: as above; conditions: visual rating vs untreated control after about 3 weeks
Procedure, shortened: as §1

[4] = tested on: Amaranthus retroflexus (AMARE); assay: as above; conditions: visual rating vs untreated control after about 3 weeks
Procedure, shortened: as §1

Veronica persica (VERPE) [5] = assay: as above; conditions: 320 g/ha, visual rating vs untreated control after about 3 weeks
Procedure, shortened: as §1

[6] = tested on: Abutilon theophrasti (ABUTH); assay: as above; conditions: visual rating vs untreated control after about 3 weeks
Procedure, shortened: as §1

Poa annua (POAAN) [7] = assay: as above; conditions: visual rating vs untreated control after about 3 weeks
Procedure, shortened: as §1

[8] = tested on: Matricaria inodora (MATIN); assay: Pre-emergence herbicide efficacy at 80 g/ha, greenhouse pot test; conditions: visual scoring vs untreated control after about 3 weeks
Procedure, shortened: (§2)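 Seeds were sown in pots and covered with soil, then the compound (WP or EC formulation) was sprayed onto the soil surface as an aqueous suspension or emulsion with 0.5% additive. Pots were kept in a greenhouse, and after about 3 weeks activity was scored visually versus untreated controls (100% = plants dead, 0% = like control).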

Setaria viridis (SETVI) [9] = assay: as above; conditions: visual scoring vs untreated control after about 3 weeks
Procedure, shortened: as §2

[10] = tested on: Polygonum convolvulus (POLCO); assay: as above; conditions: visual scoring vs untreated control after about 3 weeks
Procedure, shortened: as §2

Viola tricolor (VIOTR) [11] = assay: as above; conditions: visual scoring vs untreated control after about 3 weeks
Procedure, shortened: as §2

[12] = tested on: Alopecurus myosuroides (ALOMY); assay: as above; conditions: visual scoring vs untreated control after about 3 weeks
Procedure, shortened: as §2

[13] = tested on: Amaranthus retroflexus (AMARE); assay: as above; conditions: visual scoring vs untreated control after about 3 weeks
Procedure, shortened: as §2

Veronica persica (VERPE) [14] = assay: as above; conditions: visual scoring vs untreated control after about 3 weeks
Procedure, shortened: as §2

[15] = tested on: Abutilon theophrasti (ABUTH); assay: as above; conditions: visual scoring vs untreated control after about 3 weeks
Procedure, shortened: as §2

[16] = tested on: Polygonum convolvulus (POLCO); assay: Post-emergence herbicidal efficacy at 80 g/ha, greenhouse pot test; conditions: visual rating vs untreated control after about 3 weeks
Procedure, shortened: (§3)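 Visual rating of activity versus untreated plants after about 3 greenhouse weeks, 0% meaning control-like and 100% meaning dead. Plants in sandy loam were sprayed at one-leaf stage (2–3 weeks post-sowing) with WP/EC compound suspensions or emulsions, 0.5% additive, 600 l/ha water.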

[17] = tested on: Amaranthus retroflexus (AMARE); assay: as above; conditions: visual rating vs untreated control after about 3 weeks
Procedure, shortened: as §3

Veronica persica (VERPE) [18] = assay: as above; conditions: visual rating vs untreated control after about 3 weeks
Procedure, shortened: as §3

Bassia scoparia (KCHSC) [19] = assay: Pre-emergence herbicide efficacy at 320 g/ha, greenhouse pot test; conditions: dosage 1280 g/ha in Table C6, visual scoring after about 3 weeks
Procedure, shortened: (§4)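 Weed seeds were sown in sandy loam in pots, one mono- or dicot species per pot, and covered with soil. WP or EC formulations were sprayed onto the soil surface as aqueous suspension or emulsion with 0.5% additive at 600 L/ha water. Visual scoring after about 3 weeks, % activity versus untreated controls.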

[20] = tested on: Echinochloa crus-galli (ECHCG); assay: as above; conditions: visual scoring vs untreated control after about 3 weeks
Procedure, shortened: as §4

[21] = tested on: Matricaria inodora (MATIN); assay: as above; conditions: visual scoring vs untreated control after about 3 weeks
Procedure, shortened: as §4

Setaria viridis (SETVI) [22] = assay: as above; conditions: visual scoring vs untreated control after about 3 weeks
Procedure, shortened: as §4

Stellaria media (STEME) [23] = assay: as above; conditions: visual scoring vs untreated control after about 3 weeks
Procedure, shortened: as §4

[24] = tested on: Alopecurus myosuroides (ALOMY); assay: as above; conditions: visual scoring vs untreated control after about 3 weeks
Procedure, shortened: as §4

[25] = tested on: Amaranthus retroflexus (AMARE); assay: as above; conditions: visual scoring vs untreated control after about 3 weeks
Procedure, shortened: as §4

Veronica persica (VERPE) [26] = assay: as above; conditions: visual scoring vs untreated control after about 3 weeks
Procedure, shortened: as §4

[27] = tested on: Abutilon theophrasti (ABUTH); assay: as above; conditions: visual scoring vs untreated control after about 3 weeks
Procedure, shortened: as §4

Poa annua (POAAN) [28] = assay: as above; conditions: visual scoring vs untreated control after about 3 weeks
Procedure, shortened: as §4

Avena fatua (AVEFA) = assay: Pre-emergence herbicide efficacy at 80 g/ha, greenhouse pot test; conditions: visual scoring vs untreated control after about 3 weeks
Procedure, shortened: as §2

Ipomoea purpurea (PHBPU) = assay: as above; conditions: visual scoring vs untreated control after about 3 weeks
Procedure, shortened: as §2

[29] = tested on: Digitaria sanguinalis (DIGSA); assay: as above; conditions: visual scoring vs untreated control after about 3 weeks
Procedure, shortened: as §2

Viola tricolor (VIOTR) [30] = assay: Post-emergence herbicidal efficacy at 80 g/ha, greenhouse pot test; conditions: visual rating vs untreated control after about 3 weeks
Procedure, shortened: as §3

[31] = tested on: Alopecurus myosuroides (ALOMY); assay: as above; conditions: visual rating vs untreated control after about 3 weeks
Procedure, shortened: as §3

Cc1cc(C)c(-c2cc(C(F)F)no2)c(Oc2ncc(Br)cn2)n1 [Example I-41]
80%: Pre-emergence efficacy against Matricaria inodora (MATIN) [8] | Pre-emergence efficacy against Setaria viridis (SETVI) (Setaria viridis (SETVI) [9]) | Pre-emergence efficacy against Viola tricolor (VIOTR) (Viola tricolor (VIOTR) [11]) | Pre-emergence efficacy against Alopecurus myosuroides (ALOMY) [12] | Pre-emergence efficacy against Veronica persica (VERPE) (Veronica persica (VERPE) [14]) | Pre-emergence efficacy against Abutilon theophrasti (ABUTH) [15] | Post-emergence efficacy against Polygonum convolvulus (POLCO) [16]
90%: Post-emergence efficacy against Lolium rigidum (LOLRI) (Lolium rigidum (LOLRI)) | Post-emergence efficacy against Setaria viridis (SETVI) (Setaria viridis (SETVI) [2]) | Post-emergence efficacy against Abutilon theophrasti (ABUTH) [6] | Pre-emergence efficacy against Polygonum convolvulus (POLCO) [10] | Post-emergence efficacy against Amaranthus retroflexus (AMARE) [17] | Post-emergence efficacy against Veronica persica (VERPE) (Veronica persica (VERPE) [18]) | Pre-emergence efficacy against Echinochloa crus-galli (ECHCG) [20] | Pre-emergence efficacy against Alopecurus myosuroides (ALOMY) [24]
100%: Post-emergence efficacy against Bassia scoparia (KCHSC) (Bassia scoparia (KCHSC) [1]) | Post-emergence action against Stellaria media (STEME) (Stellaria media (STEME) [3]) | Post-emergence efficacy against Amaranthus retroflexus (AMARE) [4] | Post-emergence efficacy against Veronica persica (VERPE) (Veronica persica (VERPE) [5]) | Post-emergence efficacy against Poa annua (POAAN) (Poa annua (POAAN) [7]) | Pre-emergence efficacy against Amaranthus retroflexus (AMARE) [13] | Pre-emergence efficacy against Bassia scoparia (KCHSC) (Bassia scoparia (KCHSC) [19]) | Pre-emergence efficacy against Matricaria inodora (MATIN) [21] | Pre-emergence efficacy against Setaria viridis (SETVI) (Setaria viridis (SETVI) [22]) | Pre-emergence efficacy against Stellaria media (STEME) (Stellaria media (STEME) [23]) | Pre-emergence efficacy against Amaranthus retroflexus (AMARE) [25] | Pre-emergence efficacy against Veronica persica (VERPE) (Veronica persica (VERPE) [26]) | Pre-emergence efficacy against Abutilon theophrasti (ABUTH) [27] | Pre-emergence efficacy against Poa annua (POAAN) (Poa annua (POAAN) [28])

Cc1cc(C)c(-c2cc(C(F)F)no2)c(Oc2ncc(F)cn2)n1 [Example I-4]
100%: Pre-emergence efficacy against Setaria viridis (SETVI) (Setaria viridis (SETVI) [9]) | Pre-emergence efficacy against Viola tricolor (VIOTR) (Viola tricolor (VIOTR) [11]) | Pre-emergence efficacy against Amaranthus retroflexus (AMARE) [13] | Pre-emergence efficacy against Veronica persica (VERPE) (Veronica persica (VERPE) [14]) | Pre-emergence efficacy against Abutilon theophrasti (ABUTH) [15] | Pre-emergence efficacy against Digitaria sanguinalis (DIGSA) [29] | Post-emergence efficacy against Amaranthus retroflexus (AMARE) [17]
90%: Pre-emergence efficacy against Matricaria inodora (MATIN) [8] | Pre-emergence efficacy against Polygonum convolvulus (POLCO) [10] | Pre-emergence efficacy against Alopecurus myosuroides (ALOMY) [12] | Post-emergence efficacy against Polygonum convolvulus (POLCO) [16] | Post-emergence efficacy against Alopecurus myosuroides (ALOMY) [31] | Post-emergence efficacy against Veronica persica (VERPE) (Veronica persica (VERPE) [18])
80%: Pre-emergence efficacy against Avena fatua (AVEFA) (Avena fatua (AVEFA)) | Pre-emergence efficacy against Ipomoea purpurea (PHBPU) (Ipomoea purpurea (PHBPU)) | Post-emergence efficacy against Viola tricolor (VIOTR) (Viola tricolor (VIOTR) [30])
